The source of these data is patent US20030134848A1, “Substituted 1-aza-2-imino-heterocycles and their use as nicotinic acetylcholin receptors activators” (priority 2000, published 2003).

α1β1γδ subtype of nicotinic acetylcholine receptors, sequence (P25109 24-501): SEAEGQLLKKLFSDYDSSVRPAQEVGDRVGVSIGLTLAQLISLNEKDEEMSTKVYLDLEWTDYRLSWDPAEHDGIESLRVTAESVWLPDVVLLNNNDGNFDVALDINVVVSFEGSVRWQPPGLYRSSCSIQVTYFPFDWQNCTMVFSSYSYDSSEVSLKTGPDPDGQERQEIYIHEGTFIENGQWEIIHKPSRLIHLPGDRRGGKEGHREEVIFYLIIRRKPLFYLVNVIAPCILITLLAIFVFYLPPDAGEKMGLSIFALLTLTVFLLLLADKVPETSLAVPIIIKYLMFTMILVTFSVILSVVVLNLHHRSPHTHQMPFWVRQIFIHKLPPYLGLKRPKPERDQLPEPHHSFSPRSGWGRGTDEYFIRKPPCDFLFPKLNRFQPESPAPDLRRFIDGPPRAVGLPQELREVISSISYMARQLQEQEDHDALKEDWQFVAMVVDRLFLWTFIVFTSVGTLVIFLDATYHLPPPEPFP
α1β1γδ subtype of nicotinic acetylcholine receptors, sequence (P25110 22-517): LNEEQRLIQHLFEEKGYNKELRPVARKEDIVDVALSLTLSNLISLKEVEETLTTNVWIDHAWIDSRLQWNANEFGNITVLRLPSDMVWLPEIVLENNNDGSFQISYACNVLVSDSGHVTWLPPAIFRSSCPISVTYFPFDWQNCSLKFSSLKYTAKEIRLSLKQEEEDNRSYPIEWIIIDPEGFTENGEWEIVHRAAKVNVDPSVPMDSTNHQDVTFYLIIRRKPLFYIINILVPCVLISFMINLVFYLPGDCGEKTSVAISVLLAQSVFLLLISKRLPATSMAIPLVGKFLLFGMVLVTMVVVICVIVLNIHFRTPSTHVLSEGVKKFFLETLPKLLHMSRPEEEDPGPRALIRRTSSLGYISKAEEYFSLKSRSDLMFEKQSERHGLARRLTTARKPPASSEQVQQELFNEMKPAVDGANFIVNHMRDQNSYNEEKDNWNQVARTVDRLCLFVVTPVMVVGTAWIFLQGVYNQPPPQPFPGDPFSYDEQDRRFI
α1β1γδ subtype of nicotinic acetylcholine receptors, sequence (P25108 21-457): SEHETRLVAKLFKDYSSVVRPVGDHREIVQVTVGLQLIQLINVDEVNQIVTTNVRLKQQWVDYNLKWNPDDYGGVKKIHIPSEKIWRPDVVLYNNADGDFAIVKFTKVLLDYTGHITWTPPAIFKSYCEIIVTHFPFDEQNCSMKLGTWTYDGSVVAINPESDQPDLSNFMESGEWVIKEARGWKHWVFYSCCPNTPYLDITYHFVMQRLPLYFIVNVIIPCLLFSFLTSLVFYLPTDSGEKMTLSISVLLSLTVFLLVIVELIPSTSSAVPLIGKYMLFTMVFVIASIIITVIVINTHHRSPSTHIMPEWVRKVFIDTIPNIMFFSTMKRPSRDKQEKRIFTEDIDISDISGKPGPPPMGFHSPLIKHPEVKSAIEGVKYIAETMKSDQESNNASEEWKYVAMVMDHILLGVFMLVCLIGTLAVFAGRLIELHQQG
α1β1γδ subtype of nicotinic acetylcholine receptors, sequence (P18916 23-519): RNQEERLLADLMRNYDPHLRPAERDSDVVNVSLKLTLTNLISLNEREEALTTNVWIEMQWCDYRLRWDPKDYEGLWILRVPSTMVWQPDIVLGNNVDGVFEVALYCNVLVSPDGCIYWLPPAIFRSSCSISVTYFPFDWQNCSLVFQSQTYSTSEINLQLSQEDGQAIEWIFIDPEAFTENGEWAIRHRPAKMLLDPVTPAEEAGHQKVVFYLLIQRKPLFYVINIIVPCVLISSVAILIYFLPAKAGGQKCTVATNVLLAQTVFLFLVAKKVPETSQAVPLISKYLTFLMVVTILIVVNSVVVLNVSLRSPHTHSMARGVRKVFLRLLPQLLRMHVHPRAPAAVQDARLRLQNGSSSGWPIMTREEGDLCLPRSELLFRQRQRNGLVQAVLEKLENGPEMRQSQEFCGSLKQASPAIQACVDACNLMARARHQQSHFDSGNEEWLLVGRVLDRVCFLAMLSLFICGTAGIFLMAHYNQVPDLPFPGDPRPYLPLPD

The target of the first experiment is α1β1γδ subtype of nicotinic acetylcholine receptors (Rattus norvegicus, UniProt P18916+P25108+P25110). The experiment in a line: biochemical. The format is binding. To be noted: read-out: Affinities for receptors Ki α1β1γδ; rat muscle extract, [3H]-α-Bgt 1 nM. An excerpt:
The methods for evaluating the binding capabilities of the compounds at nicotinic acetylcholine receptors are different by subtypes of receptors. The binding capabilities of the compounds at α4β2 nicotinic acetylcholine receptors are examined using rat brain membrane obtained from whole homogenized brain, and determining the inhibiting rate of the compounds against [^3H]-cytisine binding to said brain membrane. Furthermore, the binding capabilities of the compounds at α1β1γδ nicotinic acetylcholine receptors are examined using homogenized rat muscle, and determining the inhibiting rate of the compounds against [^3H]-α-bungarotoxin binding to said muscle homogenate.
The affinity of the compounds of the present invention to α1β1γδ subtype of nicotinic acetylcholine receptors was measured by the following method, which was modified method described by Garcha H. S., Thomas P., Spivak C. E., Wonnacott S. & Stolerman I. P., Psychropharmacology, 110, 347-354 (1993).
(1) Preparation of Rat Skeletal Muscles Containing α1β1γδ Subtype of Nicotinic Acetylcholine Receptors
The substantially same animals described in the Biological Experiment 1 were used.
The isolation of α1β1γδ subtype of nicotinic acetylcholine receptors was performed as follow. That is, rat posterior skeletal muscles were isolated just after sacrificed by decapitation, washed with ice-cooled saline solution and then frozen at −80° C. with liquid nitrogen and stored till using. After thawing the frozen muscles, tissue was homogenized (40% w/v) with buffer solution [2.5 mM of sodium phosphate buffer (pH:7.2), 90 mM of NaCl, 2 mM of KCl, 1 mM of EDTA, 2 mM of benzamidine, 0.1 mM of benzethonium chloride, 0.1 mM of PMSF, 0.01% of sodium azide] in Waring blender (Waring blender 34BL97; WARING PRODUCTS DIVISION DYNAMICS CORPORATION OF AMERICA) for 60 seconds. The homogenate were centrifuged under 20,000×G for 60 minutes at 4° C. The supernatant was separated and the resulting pellet was added to the same buffer (1.5 ml/g wet weight), and homogenized under the same conditions. Triton X100 (2% w/v) was added and the mixture was stirred for 3 hours at 4° C. The centrifugation at 100,000×G for 60 minutes at 4° C. yielded the rat muscle extract as supernatant. This was stored at 4° C. for up to 4 weeks, and used for binding assays at receptors.
(2) Experiments of α1β1γδ Subtype of Nicotinic Acetylcholine Receptors Binding
Receptors binding experiments were performed as follow. That is, the extract of rat muscle containing 600-900 μg of protein was added to test tubes containing test compounds and incubated for 15 minutes at 37° C. Then, to this mixture was added 1 nM of [^3H]-α-bungarotoxin (α-Bgt) and further incubated for 2 hours. The samples were isolated by vacuum filtration onto Whatman GF/B filters, which were prerinsed with 0.5% polyethylenimine just prior to sample filtration, using Brandel multi manifold cell harvester. The filters were rapidly rinsed with washing solution (10 mM of KH2PO4, 150 mM of NaCl, pH 7.2, room temperature) (5×1 ml). The filters were counted in 3 ml of clearsol I (Nacalai Tesque Inc.). The determination of nonspecific binding was incubated in the presence of 1 μM α-Bgt. The solutions containing α-Bgt (labeled/non-labeled) were prepared by using buffer solution containing 0.25% of BSA. In the receptor binding experiments, said buffer solution was added for adjusting the final concentration of BSA to be 0.05%.
The analyses of the experimental results were conducted by the same way as described in the Biological Experiment 1.
A word on the Ki: it is the equilibrium dissociation constant of an inhibitor or competing ligand from its target. Consider `Cc1ccc(CCn2ccnc2N)cn1` [Compound 11, 2-amino-1-[2-(6-methyl-3-pyridyl)ethyl]imidazole], for which the Ki came to 1150 µM.

With `N=C1NCCCN1CCc1ccc(Cl)nc1` [Compound 12, 1-[2-(6-chloro-3-pyridyl)ethyl]-2-imino-1,2,3,4,5,6-hexahydro-pyrimidine], the Ki was determined as 12 µM.

On to `Nc1nccn1CCc1cnc(Cl)c(Cl)c1` [Compound 13, 2-amino-1-[2-(5,6-dichloro-3-pyridyl)ethyl]-imidazole], for which the Ki came out at 40 µM.

`Nc1nccn1CCc1cccnc1` [Compound 14, 2-amino-1-[2-(3-pyridyl)ethyl]imidazole]: the Ki amounted to 223 µM.

With `Nc1nccn1CCc1cnc(Cl)s1` [Compound 23, 2-amino-1-[2-(2-chloro-5-thiazolyl)ethyl]imidazole], the Ki turned out to be 44 µM.

Take `Nc1nccn1CCc1cncc(Br)c1` [Compound 25, 2-amino-1-[2-(5-bromo-3-pyridyl)ethyl]imidazole]: the Ki was determined as 36 µM.

As for `Cc1cncc(CCn2ccnc2N)c1` [Compound 27, 2-amino-1-[2-(5-methyl-3-pyridyl)ethyl]imidazole], the Ki came out at 339 µM.

For `Nc1nccn1CCc1cncnc1` [Compound 29, 2-amino-1-[2-(5-pyrimidyl)ethyl]imidazole], the Ki turned out to be 447 µM.

With `Nc1nccn1CCc1cccnn1` [Compound 30, 2-amino-1-[2-(3-pyridazinyl)ethyl]imidazole], the Ki was 80 µM.

In the case of `Nc1nccn1CCc1ccnnc1` [Compound 34, 2-amino-1-[2-(4-pyridazinyl)ethyl]imidazole], the Ki is 1270 µM.

Still in this experiment, the particulars now being: read-out: control % of [3H]-α-Bgt binding.
In the case of `Nc1nccn1CCc1cnccn1` [Compound 31, 2-amino-1-[2-(2-pyrazinyl)ethyl]imidazole], the remaining activity at 100 µM was found to be 110% and the remaining activity at 1000 µM is 53%.
